Measured values: US20230124862A1, “BISMUTH THIOL COMPOUNDS AND COMPOSITIONS AND METHODS OF TREATING MICROBIAL CO-INFECTIONS” (Microbion Corporation, priority 2020, published 2023)
Converted amounts (≈) assume the structure as drawn. Like-named read-outs stand apart in the source and are kept apart here.

What was measured:
E. coli ATCC 25922 = experiment: Broth microdilution MIC (Example 16)
[1] = system: Gram-positive organisms (S. aureus, S. pneumoniae); experiment: Broth microdilution MIC with pulmonary surfactant (Survanta); assay type: cell-based, Staphylococcus aureus, Streptococcus pneumoniae
[2] = system: cell wall synthesis in E. coli ATCC 25922; conditions: 8X the MIC
[3] = system: lipid synthesis in E. coli ATCC 25922; experiment: Macromolecular synthesis assay: lipid synthesis ([3H] glycerol); assay type: cell-based, Escherichia coli; conditions: control drug, concentration not given
Protocol: Chloroform (125 μL) was then added to each reaction and vortexed, followed by the addition of 125 μl dH2O and vortexing. Reactions were centrifuged at 13,000 rpm in a microfuge for 10 min, and then 150 μl of the organic phase was transferred to a scintillation vial and allowed to dry in a fume hood for at least 1 hr.

[4] = system: RNA synthesis in E. coli MMX 121 (K12 tolC mutant); assay type: cell-based, Escherichia coli; conditions: 8X the MIC
[5] = system: RNA synthesis in E. coli ATCC 25922; assay type: cell-based, Escherichia coli; conditions: 8X the MIC
[6] = system: protein synthesis in E. coli ATCC 25922; conditions: 8X the MIC
[7] = Escherichia coli, ATCC25922, E. coli ATCC 25922, inoculum 1
[8] = Escherichia coli, ATCC25922, E. coli ATCC 25922, inoculum 2

In the case of `C[C@@H](O)[C@H]1C(=O)N2C(C(=O)O)=C(SCCN=CN)C[C@H]12` [imipenem], the MIC (E. coli ATCC 25922; Escherichia coli, ATCC25922) is reported as 0.12 µg/mL (≈ 0.401 µM), the MIC (E. coli ATCC 25922; [7]) is reported as 0.12 µg/mL (≈ 0.401 µM) and the MIC (E. coli ATCC 25922; [8]) is reported as 0.12 µg/mL (≈ 0.401 µM). For the same compound, the MIC ([1]; S. pneumoniae ATCC 49619, 0 percent Survanta) was ≤ 0.015 µg/mL, the MIC ([1]; S. pneumoniae ATCC 49619, 1 percent Survanta) was 0.03 µg/mL (≈ 0.1 µM) and the MIC ([1]; S. pneumoniae ATCC 49619, 2.5 percent Survanta) was 0.03 µg/mL (≈ 0.1 µM). It also gave an MIC ([1]; S. pneumoniae MMX 3162, 0 percent Survanta) of 0.25 µg/mL (≈ 0.835 µM), an MIC ([1]; S. pneumoniae MMX 3162, 1 percent Survanta) of 0.25 µg/mL (≈ 0.835 µM) and an MIC ([1]; S. pneumoniae MMX 3162, 2.5 percent Survanta) of 0.25 µg/mL (≈ 0.835 µM). For the same compound, the MIC ([1]; S. pneumoniae MMX 3162, 5 percent Survanta) was 0.25 µg/mL (≈ 0.835 µM), the MIC ([1]; Staphylococcus aureus, ATCC29213, S. aureus ATCC 29213, 0 percent Survanta) was ≤ 0.015 µg/mL and the MIC ([1]; Staphylococcus aureus, ATCC29213, S. aureus ATCC 29213, 1 percent Survanta) was ≤ 0.015 µg/mL. For the same compound, the MIC ([1]; Staphylococcus aureus, ATCC29213, S. aureus ATCC 29213, 2.5 percent Survanta) was ≤ 0.015 µg/mL, the MIC ([1]; Staphylococcus aureus, ATCC29213, S. aureus ATCC 29213, 5 percent Survanta) was ≤ 0.015 µg/mL and the MIC ([1]; Staphylococcus aureus, ATCC29213, S. aureus ATCC 29213, 10 percent Survanta) was ≤ 0.015 µg/mL. The MIC ([1]; Staphylococcus aureus, ATCC43300, S. aureus ATCC 43300, 0 percent Survanta) was 0.5 µg/mL (≈ 1.67 µM) and the “inhibition of cell wall synthesis” value [2] was 78.8%.

With `Oc1cc(Cl)ccc1Oc1ccc(Cl)cc1Cl` [irgasan] the MIC (E. coli ATCC 25922; E. coli ATCC 25922, inoculum 1) was 0.12 µg/mL (≈ 0.414 µM), the MIC (E. coli ATCC 25922; E. coli ATCC 25922, inoculum 2) was 0.12 µg/mL (≈ 0.414 µM) and the MIC (E. coli ATCC 25922; E. coli ATCC 25922, inoculum 3) was 0.12 µg/mL (≈ 0.414 µM). The “inhibition of lipid synthesis” value [3] was 63.1%.

`CO[C@H]1/C=C/O[C@@]2(C)Oc3c(C)c(O)c4c(O)c(c(/C=N/N5CCN(C)CC5)c(O)c4c3C2=O)NC(=O)/C(C)=C\C=C\[C@H](C)[C@H](O)[C@@H](C)[C@@H](O)[C@@H](C)[C@H](OC(C)=O)[C@@H]1C` [rifampicin] was tested, and the “inhibition of RNA synthesis” value [4] was 91.9%, the MIC (E. coli ATCC 25922; Escherichia coli, ATCC25922) was 8 µg/mL (≈ 9.72 µM) and the MIC (E. coli ATCC 25922; [7]) was 8 µg/mL (≈ 9.72 µM). For the same compound, the MIC (E. coli ATCC 25922; [8]) was 8 µg/mL (≈ 9.72 µM), the “inhibition of RNA synthesis” value ([5]; initial assay) was 88.5% and the “inhibition of RNA synthesis” value ([5]; repeat assay) was 89.4%.

Work on `CN(C)[C@@H]1C(O)=C(C(N)=O)C(=O)[C@@]2(O)C(O)=C3C(=O)c4c(O)cccc4[C@@](C)(O)[C@H]3C[C@@H]12` [tetracycline] yielded an MIC (E. coli ATCC 25922; Escherichia coli, ATCC25922) of 1 µg/mL (≈ 2.25 µM), an MIC (E. coli ATCC 25922; [7]) of 1 µg/mL (≈ 2.25 µM) and an MIC (E. coli ATCC 25922; [8]) of 1 µg/mL (≈ 2.25 µM). For the same compound, the “inhibition of protein synthesis” value [6] was 93.8%.
